Laboratory results reported in patent US20110070575A1, “Immunomodulatory Compositions, Combinations and Methods” (Coley Pharmaceutical Group, Inc., priority 2004, published 2011).
“Also recorded” adds a separate entry of the source. Oligonucleotides are written 5' to 3', each unit as a sugar letter and its base; * is a phosphorothioate linkage, no mark a phosphodiester; rarer units and linkages stand in square brackets, end groups in braces. Plain capitals give the bases only. d = 2'-deoxy (DNA)

Biological target: T1, Human TLR7 (Homo sapiens, UniProt Q9NYK1)
T1 construct: expressed in transfected cells; host or cells: HEK293 (ATCC No. CRL-1573)
T1 sequence (Q9NYK1 27-1049): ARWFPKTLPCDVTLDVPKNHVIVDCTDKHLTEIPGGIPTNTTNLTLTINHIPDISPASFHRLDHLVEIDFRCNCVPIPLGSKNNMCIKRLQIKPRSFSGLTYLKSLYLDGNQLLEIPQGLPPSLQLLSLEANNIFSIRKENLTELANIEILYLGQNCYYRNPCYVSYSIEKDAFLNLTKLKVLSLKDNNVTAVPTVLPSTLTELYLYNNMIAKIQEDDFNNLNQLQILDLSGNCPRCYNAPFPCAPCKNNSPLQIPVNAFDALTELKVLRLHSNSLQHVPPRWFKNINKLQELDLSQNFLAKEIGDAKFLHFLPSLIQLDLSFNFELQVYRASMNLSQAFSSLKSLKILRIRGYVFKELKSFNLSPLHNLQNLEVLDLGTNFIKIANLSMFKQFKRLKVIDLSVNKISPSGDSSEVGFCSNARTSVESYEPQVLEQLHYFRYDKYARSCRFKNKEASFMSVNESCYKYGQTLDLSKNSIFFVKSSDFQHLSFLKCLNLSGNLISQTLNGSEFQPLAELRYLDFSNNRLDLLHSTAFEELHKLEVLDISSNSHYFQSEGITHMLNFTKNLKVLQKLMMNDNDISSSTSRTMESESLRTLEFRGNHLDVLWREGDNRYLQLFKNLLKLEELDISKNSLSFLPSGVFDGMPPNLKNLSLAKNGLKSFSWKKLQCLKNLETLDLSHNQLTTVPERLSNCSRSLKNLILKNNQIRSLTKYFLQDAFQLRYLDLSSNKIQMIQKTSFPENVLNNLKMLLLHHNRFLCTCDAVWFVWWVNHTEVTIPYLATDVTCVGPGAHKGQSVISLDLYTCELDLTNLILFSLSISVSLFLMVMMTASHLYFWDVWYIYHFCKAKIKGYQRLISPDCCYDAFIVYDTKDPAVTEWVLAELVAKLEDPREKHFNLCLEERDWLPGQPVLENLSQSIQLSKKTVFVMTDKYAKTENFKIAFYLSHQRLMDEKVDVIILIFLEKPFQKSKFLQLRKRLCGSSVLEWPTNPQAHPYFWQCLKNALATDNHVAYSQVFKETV
Experiment: NFκB luciferase induction in HEK293 cells transfected with human TLR7
Type: cell-based
Settings: transfected HEK293 cell line; poly(T), poly(A) or poly(C) oligonucleotide with 3 μM IRM1; overnight
Method: Human TLR7 and NFκβ were transfected into human epithelial kidney 293 (HEK293, American Type Culture Collection, Manassas, Va., ATCC No. CRL-1573) cells as described in U.S. Patent Publication Nos. U82004/0014779 and US2004/0171086. The selected transfected cells were counted and resuspended to a concentration of 5×10^5 cell per mL in culture media.
Cultured media was prepared from complete DMEM media (Biosource International Inc., Camarillo, Calif.), without phenol red. Fetal bovine serum (Biosource International Inc.) was added to a final concentration of 10% (vol/vol.), sodium pyruvate (Biosource International Inc.) was added to 1 mM; L-glutamine (Biosource International Inc.) was added to 2 mM; penicillin (Biosource International Inc.) was added to 100 U/mL; streptomycin (Biosource International Inc.) was added to 100 μg/mL.
100 μL aliquots of cells were placed in the wells of a white-walled, white-bottomed 96-well plate (Corning, Inc. Corning, N.Y.). […] As a negative control, some cell aliquots were incubated without a stimulus (media control). In all cases, the cells were incubated overnight at 37° C. with 5% CO2 and 98% humidity.
After the cells incubated overnight, 100 μL volume of reconstituted LucLight Plus (Packard Instruments, Meriden, Conn.) was added to each aliquot of cells. Each well of the plate was read on a L-max luminometer (Molecular Devices, Sunnyvale, Calif.). The data is expressed as fold increase of luciferase induction in cell aliquots incubated with the indicated stimulant compared to the negative control.
HEK293 cells expressing human TLR7 were prepared as described in Example 1. […] As a negative control, some cell aliquots were incubated without a stimulus (media control).
After the cells incubated overnight, the cells were analyzed as described in Example 1. The data is expressed as fold increase of luciferase induction in cell aliquots incubated with the indicated stimulant compared to the negative control.

Substance | inhibition of smIRM-induced TLR7-mediated biological activity (fold increase of luciferase induction)
poly(A): 18-mer poly(A) oligonucleotide, 5′-AAAAAAAAAAAAAAAAAA-3′ (dA*dA*dA*dA*dA*dA*dA*dA*dA*dA*dA*dA*dA*dA*dA*dA*dA*dA) | inhibition; also recorded: capable of limiting TLR7-mediated biological activity
poly(T): 18-mer poly(T) oligonucleotide, 5′-TTTTTTTTTTTTTTTTTT-3′ | inhibition; also recorded: capable of limiting TLR7-mediated biological activity
